Assay results published in patent US20250243194A1, “ANTAGONIST OF ADENOSINE RECEPTORS” (AdoRx Therapeutics Limited, priority 2022, published 2025).

Experiments:
[1] = target: human Adenosine A1 receptor (Homo sapiens (Human), UniProt P30542); experiment: Adenosine receptor TR-FRET binding assay (A1); conditions: inhibition of binding of 100 nM CA200645; CHO cell membranes; Ki from IC50 by Cheng and Prusoff
Method: (§1) All FRET binding experiments were conducted at room temperature in white 384-well plates, in assay binding buffer containing 1× LabMed (Cisbio, France), 100 μg/mL saponin, 1% DMSO and 0.02% pluronic acid. Binding of the fluorescently labelled Adenosine receptor antagonist XAC (CA200645, FRET acceptor) to terbium-labelled A1, A2a, A2b and A3 adenosine receptors (FRET donors) was detected by time-resolved FRET due to the close proximity of the donor and acceptor in a binding event. To investigate the ability of unlabelled test compounds to bind to Adenosine A1, A2a, A2b and A3 receptors, dose response curves were constructed that determined the ability of a range of concentrations to inhibit the binding of 30 nM CA200645 to the A2b receptor and 100 nM CA200645 to the A1, A2a, and A3 receptor.
(§2) Serial dilution (1:3 dilutions) of test compounds in neat DMSO and transfer of a 400 nL sample of test compound into the assay plate was carried out using the Mosquito (TTP Labtech, UK). The compound samples were incubated for 2 hours at room temperature with a fixed concentration of CA200645 defined for each receptor (see above) and CHO cell membranes containing the human Adenosine A1 (0.5 μg/well), A2a (0.3 μg/well), A2b (1 μg/well) or A3 (1 μg/well) receptor in 40 μL of assay buffer. Total and non-specific binding of CA200645 was determined in the absence and presence of 10 μM XAC, respectively. Following 2 hours incubation, the level of CA200645 binding was detected on a Pherastar FSX (BMG Labtech, Germany) using standard TR-FRET settings. The terbium donor was excited with three laser flashes at a wavelength of 337 nm, and donor and acceptor emission was detected at 620 nm and 665 nm wavelengths, respectively. FRET ratios were obtained by multiplying the acceptor/donor ratio value by 10,000. Specific binding was determined by subtracting the non-specific binding FRET ratio from the total binding FRET ratio. Compound IC50 curves were analysed using GraphPad Prism 7.0 (GraphPad, USA) and Ki affinity values were determined from the obtained IC50 values using the method of Cheng and Prusoff.

[2] = target: human Adenosine A2b receptor (Homo sapiens (Human), UniProt P29275); experiment: Adenosine receptor TR-FRET binding assay (A2b); conditions: inhibition of binding of 30 nM CA200645; CHO cell membranes; Ki from IC50 by Cheng and Prusoff
Sequence of human Adenosine A2b receptor (P29275 whole entry): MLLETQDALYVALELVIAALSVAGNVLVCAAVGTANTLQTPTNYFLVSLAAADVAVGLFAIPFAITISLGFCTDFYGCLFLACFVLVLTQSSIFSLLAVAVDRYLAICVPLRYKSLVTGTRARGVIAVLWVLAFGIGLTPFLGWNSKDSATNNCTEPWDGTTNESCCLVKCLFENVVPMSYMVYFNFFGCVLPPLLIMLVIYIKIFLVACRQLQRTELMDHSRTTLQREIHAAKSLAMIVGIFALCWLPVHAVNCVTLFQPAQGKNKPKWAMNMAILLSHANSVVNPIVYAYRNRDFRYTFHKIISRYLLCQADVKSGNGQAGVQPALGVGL
Method: as §1, §2

[3] = target: human Adenosine A3 receptor (Homo sapiens (Human), UniProt P0DMS8); experiment: Adenosine receptor TR-FRET binding assay (A3); conditions: inhibition of binding of 100 nM CA200645; CHO cell membranes; Ki from IC50 by Cheng and Prusoff
Sequence of human Adenosine A3 receptor (P0DMS8 whole entry): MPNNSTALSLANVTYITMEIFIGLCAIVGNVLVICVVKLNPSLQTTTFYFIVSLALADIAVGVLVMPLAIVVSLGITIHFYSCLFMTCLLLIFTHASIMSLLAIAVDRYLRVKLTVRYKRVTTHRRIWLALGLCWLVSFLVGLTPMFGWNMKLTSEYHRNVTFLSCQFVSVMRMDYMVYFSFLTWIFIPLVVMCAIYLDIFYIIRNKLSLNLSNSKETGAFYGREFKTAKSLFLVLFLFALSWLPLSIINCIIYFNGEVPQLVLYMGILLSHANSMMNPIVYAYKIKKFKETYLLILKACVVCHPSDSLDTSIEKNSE
Method: as §1, §2

[4] = target: human Adenosine A2a receptor (Homo sapiens (Human), UniProt P29274); experiment: Adenosine receptor TR-FRET binding assay (A2a); conditions: inhibition of binding of 100 nM CA200645; CHO cell membranes; Ki from IC50 by Cheng and Prusoff
Sequence of human Adenosine A2a receptor (P29274 whole entry): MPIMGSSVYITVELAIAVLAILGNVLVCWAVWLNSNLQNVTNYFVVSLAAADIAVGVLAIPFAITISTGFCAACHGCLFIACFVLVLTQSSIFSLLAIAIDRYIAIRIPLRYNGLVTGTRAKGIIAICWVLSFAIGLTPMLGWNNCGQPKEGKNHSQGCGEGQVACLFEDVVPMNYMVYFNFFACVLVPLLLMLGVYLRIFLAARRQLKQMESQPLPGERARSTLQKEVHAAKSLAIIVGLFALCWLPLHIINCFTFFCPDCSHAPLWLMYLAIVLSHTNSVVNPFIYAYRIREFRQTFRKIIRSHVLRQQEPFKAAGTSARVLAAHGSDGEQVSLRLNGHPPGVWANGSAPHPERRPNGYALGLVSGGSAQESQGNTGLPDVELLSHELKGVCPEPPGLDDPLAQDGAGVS
Method: as §1, §2

[5] = test system: CD8+ T cells in human whole blood; experiment: Measurement of pCREB in CD8+ T cells in human whole blood; assay type: cell-based; conditions: T-cell, 3 μM NECA, rolipram, FACS
Method: Heparinised human whole blood was pre-incubated at 37° C. with serial dilutions of A2a antagonists for 20 min. and the phosphodiesterase inhibitor rolipram to amplify the pCREB response. The adenosine receptor agonist NECA is then added at a final concentration of 3 μM and following a 60 min incubation the blood is fixed and red blood cells lysed. White blood cells are isolated, permeabilized and stained with directly conjugated fluorescent antibodies to phospho-CREB (Alexa Fluor 488) and CD8 (Alexa Fluor 647) and the level of phospho-CREB in CD8+ T cells is measured by FACS using a BD Accuri C6 Flow Cytometer.

Sequence of human Adenosine A1 receptor (P30542 whole entry): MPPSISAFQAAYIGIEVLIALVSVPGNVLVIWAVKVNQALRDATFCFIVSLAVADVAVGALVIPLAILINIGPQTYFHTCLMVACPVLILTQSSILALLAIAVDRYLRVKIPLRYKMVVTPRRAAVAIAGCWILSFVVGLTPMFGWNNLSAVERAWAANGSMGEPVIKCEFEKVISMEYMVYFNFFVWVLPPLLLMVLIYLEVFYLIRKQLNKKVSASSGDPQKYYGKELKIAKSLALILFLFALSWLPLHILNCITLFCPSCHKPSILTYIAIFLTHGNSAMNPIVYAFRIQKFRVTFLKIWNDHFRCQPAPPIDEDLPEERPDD

Structure (SMILES)	Ki [1] [nM]	Ki [2] [nM]	Ki [3] [nM]	Ki [4] [nM]	IC50 [5] [nM]
Cc1cc(-c2sc(NC(=O)N3CC4(COC4)C3)nc2-c2cccc(C#N)c2)c2cc[nH]c2n1 [Example 34, N-[4-(3-Cyanophenyl)-5-(6-methyl-1H-pyrrolo[2,3-b]pyridin-4-yl)thiazol-2-yl]-2-oxa-6-azaspiro[3.3]heptane-6-carboxamide]	290	7.6	260	7.4	
Cc1cc(-c2sc(NC(=O)N3CC4(COC4)C3)nc2-c2cccc(C#N)c2)cnn1 [Example 31, N-[4-(3-Cyanophenyl)-5-(6-methylpyridazin-4-yl)thiazol-2-yl]-2-oxa-6-azaspiro[3.3]heptane-6-carboxamide]	57	38.7	1180	4.31	
Cc1cc(-c2sc(NC(=O)N3CC4(COC4)C3)nc2-c2cccc(C#N)c2)c2cn[nH]c2n1 [Example 2.5, N-[4-(3-Cyanophenyl)-5-(6-methyl-1H-pyrazolo[3,4-b]pyridin-4-yl)thiazol-2-yl]-2-oxa-6-azaspiro[3.3]heptane-6-carboxamide]	14	0.9	2600	3.3	
Cc1cc(-c2sc(NC(=O)N3CC4(COC4)C3)nc2-c2cccc(C#N)c2)cc2[nH]ncc12 [Example 2.2, N-[4-(3-Cyanophenyl)-5-(4-methyl-1H-indazol-6-yl)thiazol-2-yl]-2-oxa-6-azaspiro[3.3]heptane-6-carboxamide]	2	3.3	820	2.69	
N#Cc1cccc(-c2nc(NC(=O)N3CC4(COC4)C3)sc2-c2ccnc3[nH]ccc23)c1 [Example 2.4, N-[4-(3-Cyanophenyl)-5-(1H-pyrrolo[2,3-b]pyridin-4-yl)thiazol-2-yl]-2-oxa-6-azaspiro[3.3]heptane-6-carboxamide]	1	0.5	290	1	
Cc1cc(-c2sc(NC(=O)N3CCC(C)(C#N)CC3)nc2-c2cccc(C#N)c2)c2[nH]ncc2n1 [Example 19, 4-Cyano-N-[4-(3-cyanophenyl)-5-(5-methyl-1H-pyrazolo[4,3-b]pyridin-7-yl)thiazol-2-yl]-4-methyl-piperidine-1-carboxamide]	240	1.8		2	216
Cc1ncnc2ccc(-c3sc(NC(=O)N4CCC5(CC4)CNCCO5)nc3-c3cccc(C#N)c3)cc12 [Example 3.1, N-[4-(3-Cyanophenyl)-5-(4-methylquinazolin-6-yl)thiazol-2-yl]-1-oxa-4,9-diazaspiro[5.5]undecane-9-carboxamide]	48	1.3		0.15	10
Cc1ncnc2ccc(-c3sc(NC(=O)N4CCOC(CN(C)C)C4)nc3-c3cccc(C#N)c3)cc12 (stereo not shown) [Example 7.8, N-[4-(3-Cyanophenyl)-5-(4-methylquinazolin-6-yl)thiazol-2-yl]-2-[(dimethylamino)methyl]morpholine-4-carboxamide]	13	2.4		0.14	
Cc1ncnc2ccc(-c3sc(NC(=O)N4CC5CN(C)CC54)nc3-c3cccc(C#N)c3)cc12 (stereo not shown) [Example 7.3, N-[4-(3-Cyanophenyl)-5-(4-methylquinazolin-6-yl)thiazol-2-yl]-3-methyl-3,6-diazabicyclo[3.2.0]heptane-6-carboxamide]	19	10.5		2.42	
Cc1cc(-c2sc(NC(=O)N3CC4(COC4)C3)nc2-c2cccc(C#N)c2)cn2ccnc12 [Example 29, N-[4-(3-Cyanophenyl)-5-(8-methylimidazo[1,2-a]pyridin-6-yl)thiazol-2-yl]-2-oxa-6-azaspiro[3.3]heptane-6-carboxamide]	4	1.3		1.88	
Cc1ncnc2ccc(-c3sc(NC(=O)N4CCN(C(C)(C)C#N)CC4)nc3-c3cccc(C#N)c3)cc12 [Example 7.2, 4-(1-Cyano-1-methyl-ethyl)-N-[4-(3-cyanophenyl)-5-(4-methylquinazolin-6-yl)thiazol-2-yl]piperazine-1-carboxamide]	9	1.5		0.2	

Second part, the compound after the results:

Ki [1] [nM]	Ki [2] [nM]	Ki [3] [nM]	Ki [4] [nM]	IC50 [5] [nM]	Structure (SMILES)
1.6	1.6	130	1.4		N#Cc1cccc(-c2nc(NC(=O)N3CC4(COC4)C3)sc2-c2ccc3ncoc3c2)c1 [Example 35, N-[5-(1,3-benzoxazol-6-yl)-4-(3-cyanophenyl)thiazol-2-yl]-2-oxa-6-azaspiro[3.3]heptane-6-carboxamide]
9	1.5		0.2		Cc1ncnc2ccc(-c3sc(NC(=O)N4CCO[C@H](C(C)(C)O)C4)nc3-c3cccc(C#N)c3)cc12 (single isomer, unassigned) [Example 7.7b, (2S)—N-[4-(3-Cyanophenyl)-5-(4-methylquinazolin-6-yl)thiazol-2-yl]-2-(1-hydroxy-1-methyl-ethyl)morpholine-4-carboxamide or (2R)—N-[4-(3-cyanophenyl)-5-(4-methylquinazolin-6-yl)thiazol-2-yl]-2-(1-hydroxy-1-methyl-ethyl)morpholine-4-carboxamide]
27	1.9		0.19	10	Cc1ncnc2ccc(-c3sc(NC(=O)N4CCC5(CNCCO5)C4)nc3-c3cccc(C#N)c3)cc12 (stereo not shown) [Example 4, N-[4-(3-Cyanophenyl)-5-(4-methylquinazolin-6-yl)thiazol-2-yl]-6-oxa-2,9-diazaspiro[4.5]decane-2-carboxamide]
4	1.1		0.1		Cc1ncnc2ccc(-c3sc(NC(=O)N4CCO[C@H](C(C)(C)O)C4)nc3-c3cccc(C#N)c3)cc12 (single isomer, unassigned) [Example 7.7a, (2S)—N-[4-(3-Cyanophenyl)-5-(4-methylquinazolin-6-yl)thiazol-2-yl]-2-(1-hydroxy-1-methyl-ethyl)morpholine-4-carboxamide or (2R)—N-[4-(3-cyanophenyl)-5-(4-methylquinazolin-6-yl)thiazol-2-yl]-2-(1-hydroxy-1-methyl-ethyl)morpholine-4-carboxamide]
3	0.5		0.09	5	Cc1ncnc2ccc(-c3sc(NC(=O)N4CC5(COC5)C4)nc3-c3cccc(C#N)c3)cc12 [Example 7.29, N-[4-(3-Cyanophenyl)-5-(4-methylquinazolin-6-yl)thiazol-2-yl]-2-oxa-6-azaspiro[3.3]heptane-6-carboxamide]
9	1.2		0.21		Cc1ncnc2ccc(-c3sc(NC(=O)N4CCN(C(C)C#N)CC4)nc3-c3cccc(C#N)c3)cc12 (stereo not shown) [Example 7.5, 4-(1-Cyanoethyl)-N-[4-(3-cyanophenyl)-5-(4-methylquinazolin-6-yl)thiazol-2-yl]piperazine-1-carboxamide]
14	1.1		0.18		Cc1ncnc2ccc(-c3sc(NC(=O)N4CCN(CC#N)CC4)nc3-c3cccc(C#N)c3)cc12 [Example 7.15, 4-(Cyanomethyl)-N-[4-(3-cyanophenyl)-5-(4-methylquinazolin-6-yl)thiazol-2-yl]piperazine-1-carboxamide]
27	3.1		0.48		Cc1ncnc2ccc(-c3sc(NC(=O)N4CCN(CCO)CC4)nc3-c3cccc(C#N)c3)cc12 [Example 7.27, N-[4-(3-Cyanophenyl)-5-(4-methylquinazolin-6-yl)thiazol-2-yl]-4-(2-hydroxyethyl)piperazine-1-carboxamide]
